The text below walks through data of US10669272B2, “Substituted naphthyridinone compounds useful as T cell activators” (BRISTOL-MYERS SQUIBB COMPANY, priority 2018, dated 2020).

For one test, the system named is Human venous whole blood. The test is described as follows: Human whole blood IFN-γ assay.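 Further: blood from healthy donors exposed to compound for 1 h before stimulation with anti-CD3 and anti-CD28 at 1 µg/mL each, IFN-γ quantified in supernatant by AlphaLISA.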 Format: cell-based. Conditions: human whole blood, normalized to 3 μM reference compound with anti-CD3 plus anti-CD28 as 100% activation, read-out: INFg Whole Blood Normalized Agonist EC50.
For the next test, the target named is T1, human DGKζ (Homo sapiens, UniProt Q13574).
T1 construct: TVMV protease cleavage site (C); Hexa-His (C); made in house; host or cells: Sf9 insect cells (baculovirus, Bac-to-Bac)
T1 sequence (Q13574 with tags, fused parts or gaps isoform Q13574-4): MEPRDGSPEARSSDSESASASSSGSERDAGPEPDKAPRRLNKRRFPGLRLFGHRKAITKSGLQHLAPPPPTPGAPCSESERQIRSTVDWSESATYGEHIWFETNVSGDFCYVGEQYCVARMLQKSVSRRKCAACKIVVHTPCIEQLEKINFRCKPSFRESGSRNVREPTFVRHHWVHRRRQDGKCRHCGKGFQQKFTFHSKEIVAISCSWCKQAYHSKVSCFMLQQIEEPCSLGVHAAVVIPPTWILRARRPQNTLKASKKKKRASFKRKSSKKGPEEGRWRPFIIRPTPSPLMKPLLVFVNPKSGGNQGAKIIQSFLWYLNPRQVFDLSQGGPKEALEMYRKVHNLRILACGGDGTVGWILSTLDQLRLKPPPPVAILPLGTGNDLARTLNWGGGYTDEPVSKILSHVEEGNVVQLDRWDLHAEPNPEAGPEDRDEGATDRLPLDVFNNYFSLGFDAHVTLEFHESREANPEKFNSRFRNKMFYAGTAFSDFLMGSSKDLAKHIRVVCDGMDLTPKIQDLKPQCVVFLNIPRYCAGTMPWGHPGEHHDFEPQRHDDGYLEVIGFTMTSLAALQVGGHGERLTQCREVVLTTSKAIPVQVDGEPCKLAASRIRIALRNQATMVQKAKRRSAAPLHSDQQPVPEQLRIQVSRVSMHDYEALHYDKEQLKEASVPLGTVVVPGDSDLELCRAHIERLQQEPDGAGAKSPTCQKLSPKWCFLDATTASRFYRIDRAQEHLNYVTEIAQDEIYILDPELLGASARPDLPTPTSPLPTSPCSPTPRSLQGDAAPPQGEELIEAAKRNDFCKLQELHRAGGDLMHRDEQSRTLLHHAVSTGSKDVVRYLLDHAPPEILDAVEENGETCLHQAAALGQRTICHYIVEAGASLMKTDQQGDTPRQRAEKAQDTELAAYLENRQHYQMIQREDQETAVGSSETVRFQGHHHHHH
Briefly: DGKζ LIPGLO assay (extruded liposome substrate), in vitro DGK inhibition. Format: biochemical. To be noted: liposome (LIPGLO) assay; read-out: DGKz LIPGLO IC50.

The next test addresses T2, human DGKα (Homo sapiens, UniProt P23743).
T2 construct: TVMV protease cleavage site (C); Hexa-His (C); made in house; host or cells: Sf9 insect cells (baculovirus, Bac-to-Bac)
The test is described as follows: DGKα LIPGLO assay (extruded liposome substrate), in vitro DGK inhibition. Format: biochemical. Conditions: liposome (LIPGLO) assay; read-out: DGKa LIPGLO IC50.

The next test has as its system naïve human CD8 T cells. Briefly: Human CD8 T cells IFN-γ assay.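 Further: Naïve human CD8 T cells stimulated with plate-bound anti-CD3 and soluble anti-CD28, IFN-γ in supernatant quantified by AlphaLISA and converted to pg/mL.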 Conditions: normalized to 3 μM reference compound with anti-CD3 plus anti-CD28 as 100% activation, read-out: HuCD8 INFG Normalized EC50. Format: cell-based.
Test [1] deals with OT-1 CD8+ T cells with SIINFEKL-loaded MC38 tumor cells. The test is described as follows: Murine cytotoxic T lymphocyte assay (IFN-γ, OT-1 CTL with MC38 tumor cells). Type of test: cell-based, mouse. To be noted: read-out: msCTL INFg IC50. In a few lines:
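OT-1 CD8+ T cells, expanded 5 days with OVA peptide (1 μg/mL) and mIL2, pretreated 1 h with DGK inhibitors, then co-cultured overnight at 37° C at 1:10 with MC38 cells pulsed 3 h with 1 μg/mL SIINFEKL. IFN-γ in 24 h supernatant by AlphaLISA.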

The structures appear in SMILES notation. Where two headings read alike, the source gives them in different places.

T2 sequence (P23743 with tags, fused parts or gaps): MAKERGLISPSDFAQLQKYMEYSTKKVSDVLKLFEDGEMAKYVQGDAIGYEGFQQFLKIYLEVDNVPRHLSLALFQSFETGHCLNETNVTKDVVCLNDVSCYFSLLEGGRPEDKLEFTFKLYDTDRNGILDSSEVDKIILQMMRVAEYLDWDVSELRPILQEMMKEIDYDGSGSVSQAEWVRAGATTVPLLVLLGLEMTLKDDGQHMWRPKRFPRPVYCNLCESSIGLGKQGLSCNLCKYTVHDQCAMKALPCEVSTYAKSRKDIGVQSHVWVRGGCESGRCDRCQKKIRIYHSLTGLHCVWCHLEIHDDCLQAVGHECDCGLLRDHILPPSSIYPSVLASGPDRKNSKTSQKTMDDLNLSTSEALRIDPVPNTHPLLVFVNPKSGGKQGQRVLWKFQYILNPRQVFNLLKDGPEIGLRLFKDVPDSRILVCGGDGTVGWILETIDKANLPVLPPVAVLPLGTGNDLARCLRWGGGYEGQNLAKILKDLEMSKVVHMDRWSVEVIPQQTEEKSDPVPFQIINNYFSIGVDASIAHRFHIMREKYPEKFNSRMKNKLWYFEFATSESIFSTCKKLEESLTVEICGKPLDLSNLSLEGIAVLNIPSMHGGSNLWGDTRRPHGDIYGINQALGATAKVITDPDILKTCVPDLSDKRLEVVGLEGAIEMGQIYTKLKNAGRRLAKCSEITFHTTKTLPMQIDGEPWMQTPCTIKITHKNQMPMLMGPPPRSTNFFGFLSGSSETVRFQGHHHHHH
Method for Human venous whole blood: Human Whole Blood IFN-γ Assay
Human venous whole blood (22.5 μL per well), obtained from healthy donors, was pre-treated with compounds for one hour at 37° C. in a humidified 95% air/5% CO2 incubator. The blood was stimulated with 2.5 μL anti-human CD3 and anti-CD28 mAb at a final concentration of 1 μg/mL each for 24 hours at 37° C. IFN-γ in the supernatants was measured using AlphLISA kit (Cat # AL217).

`Cn1c(=O)cc(N2CCN(C(c3ccc(F)cc3)c3ccc(F)cc3)C(C#N)C2)c2nc(C#N)ccc21` (single isomer, unassigned) [Example 45, 8-(4-(bis(4-fluorophenyl)methyl)-3-cyanopiperazin-1-yl)-5-methyl-6-oxo-5,6-dihydro-1,5-naphthyridine-2-carbonitrile]: the concentration giving a half-maximal response (EC50) came to 2.3 µM with Human venous whole blood and 0.53 µM in the test on naïve human CD8 T cells. Also, the IC50 turned out to be 2.4 µM at human DGKζ, 7.2 µM at human DGKα and 0.91 µM in test [1].

On to `COC(=O)C1CN(c2c(C#N)c(=O)n(C)c3ccc(C#N)nc23)CCN1C(c1ccc(F)cc1)c1ccc(F)cc1` (single isomer, unassigned) [Example 50, methyl 1-(bis(4-fluorophenyl)methyl)-4-(3,6-dicyano-1-methyl-2-oxo-1,2-dihydro-1,5-naphthyridin-4-yl)piperazine-2-carboxylate], for which the concentration giving a half-maximal response (EC50) stood at 1.5 µM in the test on Human venous whole blood (Homo sapiens, 24 h) and 0.072 µM in the test on naïve human CD8 T cells. Further, the IC50 on human DGKζ stood at 0.75 µM; on human DGKα, 2.2 µM; in test [1], 0.15 µM.

In the case of `COC(=O)C1CN(c2c(Cl)c(=O)n(C)c3ccc(C#N)nc23)CCN1C(c1ccc(F)cc1)c1ccc(F)cc1` (single isomer, unassigned) [Example 76, methyl 1-(bis(4-fluorophenyl)methyl)-4-(3-chloro-6-cyano-1-methyl-2-oxo-1,2-dihydro-1,5-naphthyridin-4-yl)piperazine-2-carboxylate], the EC50 was found to be 1.6 µM in the test with Human venous whole blood (Homo sapiens, 24 h) and 10 µM with naïve human CD8 T cells (Homo sapiens, T-cell, 20 h). In addition, the IC50 came out at 5.2 µM on human DGKζ, 3.4 µM at human DGKα and 0.28 µM in test [1].

`COC(=O)C1CN(c2c(Cl)c(=O)n(C)c3ccc(C#N)nc23)CCN1C(c1ccc(F)cc1)c1ccc(F)cc1` (single isomer, unassigned) [Example 77, methyl 1-(bis(4-fluorophenyl)methyl)-4-(3-chloro-6-cyano-1-methyl-2-oxo-1,2-dihydro-1,5-naphthyridin-4-yl)piperazine-2-carboxylate]: the EC50 in the test with Human venous whole blood came out at 1.7 µM; in the test on naïve human CD8 T cells it was 10 µM. Also, the IC50 at human DGKζ is 240 µM; on human DGKα, 81 µM; in test [1] it was 3.3 µM.

Take `Cn1c(=O)cc(N2CCN(C(c3ccc(F)cc3)c3ccc(F)cc3)C(C(C)(C)O)C2)c2nc(C#N)ccc21` (single isomer, unassigned) [Example 78, 8-(4-(bis(4-fluorophenyl)methyl)-3-(2-hydroxypropan-2-yl)piperazin-1-yl)-5-methyl-6-oxo-5,6-dihydro-1,5-naphthyridine-2-carbonitrile]: the EC50 in the test with Human venous whole blood (Homo sapiens, 24 h) was found to be 8.4 µM; with naïve human CD8 T cells, 0.21 µM. In addition, the concentration for half-maximal inhibition (IC50) on human DGKζ was 1.9 µM; on human DGKα, 18 µM; in test [1], 2 µM.

In the case of `Cn1c(=O)cc(N2CCN(C(c3ccc(F)cc3)c3ccc(F)cc3)C(C(C)(C)O)C2)c2nc(C#N)ccc21` (single isomer, unassigned) [Example 79, 8-(4-(bis(4-fluorophenyl)methyl)-3-(2-hydroxypropan-2-yl)piperazin-1-yl)-5-methyl-6-oxo-5,6-dihydro-1,5-naphthyridine-2-carbonitrile], the concentration giving a half-maximal response (EC50) in the test with Human venous whole blood and in the test with naïve human CD8 T cells was 10 µM each time. Besides, the values for the IC50 (at human DGKζ; on human DGKα; in test [1]) were 240 µM, 6.7 µM and 8 µM, respectively.

Consider `Cn1c(=O)cc(N2CCN(C(c3ccc(F)cc3)c3ccc(F)cc3)C(C(C)(C)F)C2)c2nc(C#N)ccc21` (single isomer, unassigned) [Example 81, 8-(4-(bis(4-fluorophenyl)methyl)-3-(2-fluoropropan-2-yl)piperazin-1-yl)-5-methyl-6-oxo-5,6-dihydro-1,5-naphthyridine-2-carbonitrile], for which the EC50 in the test with Human venous whole blood came to 8.7 µM; in the test on naïve human CD8 T cells (Homo sapiens, T-cell, 20 h), 1.7 µM. Besides, the IC50 on human DGKζ was 16 µM; at human DGKα, 25 µM; in test [1], 0.58 µM.

On to `CC(C)C(C)(O)C1CN(c2cc(=O)n(C)c3ccc(C#N)nc23)CCN1C(c1ccc(F)cc1)c1ccc(F)cc1` (single isomer, unassigned) [Example 88, 8-(4-(bis(4-fluorophenyl)methyl)-3-(2-hydroxy-3-methylbutan-2-yl)piperazin-1-yl)-5-methyl-6-oxo-5,6-dihydro-1,5-naphthyridine-2-carbonitrile], for which the EC50 in the test with Human venous whole blood (Homo sapiens, 24 h) is 10 µM; in the test with naïve human CD8 T cells (Homo sapiens, T-cell, 20 h), 2 µM. Besides, the 50% inhibitory concentration (IC50) at human DGKζ worked out at 240 µM; on human DGKα it was 140 µM; in test [1], 0.99 µM.

As for `COCC1CN(c2cc(=O)n(C)c3ccc(C#N)nc23)CCN1C(c1ccc(F)cc1)c1ccc(F)cc1` (single isomer, unassigned) [Example 92, 8-(4-(bis(4-fluorophenyl)methyl)-3-(methoxymethyl)piperazin-1-yl)-5-methyl-6-oxo-5,6-dihydro-1,5-naphthyridine-2-carbonitrile], the EC50 with Human venous whole blood is 9 µM; in the test with naïve human CD8 T cells it was 9.7 µM. The IC50 at human DGKζ worked out at 5.4 µM; on human DGKα, 96 µM; in test [1], 0.69 µM.

For `COCC1CN(c2cc(=O)n(C)c3ccc(C#N)nc23)CCN1C(c1ccc(F)cc1)c1ccc(F)cc1` (single isomer, unassigned) [Example 93, 8-(4-(bis(4-fluorophenyl)methyl)-3-(methoxymethyl)piperazin-1-yl)-5-methyl-6-oxo-5,6-dihydro-1,5-naphthyridine-2-carbonitrile], the EC50 in the test with Human venous whole blood worked out at 1.4 µM; in the test on naïve human CD8 T cells, 0.063 µM. For the same compound, the figures for the IC50 (at human DGKζ; at human DGKα; in test [1]) were 0.68 µM, 4.3 µM and 0.081 µM, respectively.

For the compound `COC(=O)C1CN(c2cc(=O)n(C)c3ccc(C#N)nc23)CCN1C(c1ccc(Cl)cc1)c1ccc(Cl)cc1` (single isomer, unassigned) [Example 97, methyl 1-(bis(4-chlorophenyl)methyl)-4-(6-cyano-1-methyl-2-oxo-1,2-dihydro-1,5-naphthyridin-4-yl)piperazine-2-carboxylate], the EC50 with Human venous whole blood is 1.7 µM; in the test on naïve human CD8 T cells (Homo sapiens, T-cell, 20 h), 0.057 µM. Besides, the 50% inhibitory concentration (IC50) at human DGKζ worked out at 1.7 µM; on human DGKα, 14 µM; in test [1] (Mus musculus, MC-38), 0.096 µM.

For the compound `Cn1c(=O)c(Cl)c(N2CCN(C(c3ccc(F)cc3)c3ccc(F)cc3)C(CO)C2)c2nc(C#N)ccc21` (single isomer, unassigned) [Example 100, 8-(4-(bis (4-fluorophenyl)methyl)-3-(hydroxymethyl)piperazin-1-yl)-7-chloro-5-methyl-6-oxo-5,6-dihydro-1,5-naphthyridine-2-carbonitrile], the concentration giving a half-maximal response (EC50) with Human venous whole blood (Homo sapiens, 24 h) is 1.4 µM; in the test on naïve human CD8 T cells (Homo sapiens, T-cell, 20 h), 0.089 µM. Moreover, the half-maximal inhibitory concentration (IC50) at human DGKζ worked out at 3.1 µM; at human DGKα it was 1.9 µM; in test [1] (Mus musculus, MC-38), 0.11 µM.

On to `Cn1c(=O)c(Cl)c(N2CCN(C(c3ccc(F)cc3)c3ccc(F)cc3)C(CO)C2)c2nc(C#N)ccc21` (single isomer, unassigned) [Example 101, 8-(4-(bis (4-fluorophenyl)methyl)-3-(hydroxymethyl)piperazin-1-yl)-7-chloro-5-methyl-6-oxo-5,6-dihydro-1,5-naphthyridine-2-carbonitrile], for which the concentration giving a half-maximal response (EC50) was found to be 2.3 µM with Human venous whole blood and 0.077 µM with naïve human CD8 T cells. In addition, the half-inhibitory concentration (IC50) on human DGKζ was 1.6 µM; at human DGKα, 3.3 µM; in test [1] it was 0.14 µM.

On to `Cn1c(=O)cc(N2CCN(C(c3ccc(F)cc3)c3ccc(F)cc3)C(C(=O)OC3CC3)C2)c2nc(C#N)ccc21` (single isomer, unassigned) [Example 106, cyclopropyl 1-(bis(4-fluorophenyl)methyl)-4-(6-cyano-1-methyl-2-oxo-1,2-dihydro-1,5-naphthyridin-4-yl)piperazine-2-carboxylate], for which the EC50 with Human venous whole blood (Homo sapiens, 24 h) was 8.5 µM; in the test with naïve human CD8 T cells, 0.61 µM. The values for the IC50 (at human DGKζ; at human DGKα; in test [1]) were 13 µM, 240 µM and 2.9 µM, respectively.

For the compound `Cn1c(=O)cc(N2CCN(C(c3ccc(F)cc3)c3ccc(F)cc3)C(C(=O)OC3CC3)C2)c2nc(C#N)ccc21` (single isomer, unassigned) [Example 107, cyclopropyl 1-(bis(4-fluorophenyl)methyl)-4-(6-cyano-1-methyl-2-oxo-1,2-dihydro-1,5-naphthyridin-4-yl)piperazine-2-carboxylate], the results for the EC50 in the test on Human venous whole blood and with naïve human CD8 T cells were 11 µM and 0.027 µM, respectively. Further, the IC50 on human DGKζ was 0.2 µM; at human DGKα, 40 µM; in test [1], 0.75 µM.

For the compound `COc1cc(F)ccc1C(c1ccc(F)cc1)N1C[C@H](C)N(c2cc(=O)n(C)c3ccc(C#N)nc23)C[C@H]1C` (single isomer, unassigned) [Example 108], the half-maximal effective concentration (EC50) with Human venous whole blood was 0.44 µM; in the test on naïve human CD8 T cells, 0.033 µM. The IC50 came to 0.13 µM on human DGKζ, 3.4 µM on human DGKα and 0.13 µM in test [1].

Usually EC50 stands for the concentration that produces a half-maximal response. A word on the IC50: it is the midpoint of a concentration-inhibition curve.
